Results: patent publication US10179777B2, “3-(1H-benzimidazol-2-yl)-1H-pyridin-2-one derivatives” (MERCK PATENT GMBH, priority 2015, dated 2019)
pIC50: −log10 of the molar value. Counter-ions that a name gives are not always drawn.

Tests used:
[1] = target: T1, ALK5 (TGFβR1; GST-modified TGFBR1 (200-503)) (Homo sapiens, UniProt P36897); experiment: ALK5 kinase inhibition assay (33P-ATP filter binding, Reaction Biology); assay type: biochemical; conditions: casein substrate, 200 μM ATP
T1 construct: Using GST-Modified TGFBR1 (200-503); GST
T1 sequence (P36897 200-503): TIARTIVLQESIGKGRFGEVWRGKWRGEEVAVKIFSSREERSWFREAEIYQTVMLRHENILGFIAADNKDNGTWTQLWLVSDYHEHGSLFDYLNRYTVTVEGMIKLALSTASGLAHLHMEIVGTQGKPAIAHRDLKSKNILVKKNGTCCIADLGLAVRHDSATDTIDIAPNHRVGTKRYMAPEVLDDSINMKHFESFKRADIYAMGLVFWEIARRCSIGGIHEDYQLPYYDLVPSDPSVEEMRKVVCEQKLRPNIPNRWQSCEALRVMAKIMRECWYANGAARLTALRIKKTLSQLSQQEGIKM
Method: (§1) The protein sequences of the kinases targeted and accompanying information are described in publically available data base http://www.uniprot.org/uniprot/for ALK1 www.uniprot.org/uniprot/P37023, for ALK2 www.uniprot.org/uniprot/Q04771 and for ALK5 www.uniprot.org/uniprot/P36897. IC50 determination of the novel inhibitors described was performed at Reaction Biology Corp., Malvern, Pa., USA, with assay conditions open to public at www.reactionbiology.com/webapps/site/KinaseDetail.aspx?page=Kinases&id=1, and www.reactionbiology.com/webapps/site/Kinase Assay Protocol.aspx. In addition, they were specified previously in Anastassiadis et al. Nat. Biotechnol. 29(11): 1039-1045. doi:10.1038/nbt.2017.
A3) ALK5 Kinase Inhibition Assay Was Performed Similar to Procedures A1 and A2 Using GST-Modified TGFBR1 (200-503) and 1 mg/ml Casein as Substrate at 200 μM ATP.

[2] = target: T2, ALK1 (GST-modified kinase domain ACVRL1 (139-503)) (Homo sapiens, UniProt P37023); experiment: ALK1 kinase inhibition assay (33P-ATP filter binding, Reaction Biology); assay type: biochemical; conditions: casein substrate, 100 μM ATP (Km ATP), 120 min ambient temperature
T2 construct: N-terminally GST-modified kinase domain ACVRL1 (139-503); GST (N)
T2 sequence (P37023 139-503): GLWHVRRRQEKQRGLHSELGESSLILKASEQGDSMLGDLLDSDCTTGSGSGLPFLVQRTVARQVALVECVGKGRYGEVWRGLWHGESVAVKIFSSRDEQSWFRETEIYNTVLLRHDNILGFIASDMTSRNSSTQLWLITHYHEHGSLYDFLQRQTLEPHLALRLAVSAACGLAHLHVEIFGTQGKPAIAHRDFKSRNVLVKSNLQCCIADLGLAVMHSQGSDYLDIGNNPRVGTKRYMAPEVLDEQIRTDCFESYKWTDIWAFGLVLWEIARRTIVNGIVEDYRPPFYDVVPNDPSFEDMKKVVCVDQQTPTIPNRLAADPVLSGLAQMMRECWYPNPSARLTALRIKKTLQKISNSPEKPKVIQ
Method: as §1
A1) ALK1 Kinase Inhibition Assay
(§2) was performed with N-terminally GST-modified kinase domain ACVRL1 (139-503) and 20 mg/ml Casein as substrate in reaction buffer of 20 mM HEPES pH 7.5, 10 mM MgCl2, 1 mM EGTA, 0.02% Brij, 0.02 mg/ml BSA, 0.1 mM Na3VO4, 2 mM DTT, 1% DMSO. […] Reactions were carried out at ambient temperature for 120 min, followed by spotting of the reactions onto P81 ion exchange filter paper (Whatman Inc., Picataway, N.J., USA). Unbound phosphate was removed by extensive washing of filters in 0.75% phosphoric acid. After subtraction of background derived from control reactions without enzyme activity, kinase activity data was expressed as the percent remaining kinase activity in test samples compared to vehicle (DMSO) reactions. IC50 values and curve fits were obtained using Prism (GraphPad Software).

[3] = system: ALK1-mediated SMAD1/5 phosphorylation in HUVEC cells; experiment: Cell-based immunofluorescence assay for ALK1-mediated SMAD1/5 phosphorylation in HUVEC cells; conditions: Homo sapiens, 1.5 ng/ml BMP-9 with compound for 2 h, % nuclei with pSMAD1/5 signal, read-out: Smad 1/5 IC50
Excerpt: In vitro cell-based Immunofluorescence-Assay for identification of inhibitors of ALK1-mediated SMAD1/5 phosphorylation in HUVEC cells:
ALK1 is a type I cell-surface receptor for the TGF-β superfamily of ligands. In adults ALK1 is mainly expressed on activated endothelial cells, e.g. during wound healing or in tumor angiogenesis. BMP9 and BMP10 are high affinity ligands for ALK1.
BMP9 and BMP10 binding leads to the phosphorylation of so-called Smad1 at Ser463 and Ser465 in the carboxy-terminal motif SSXS, as well as Smad5 and Smad8 at their corresponding sites. These phosphorylated Smads dimerize with the coactivating Smad4 and translocate to the nucleus, where they stimulate transcription of target genes.
Primary endothelial cells (HUVEC: Human Umbilical Vein Endothelial Cells; supplier Promocell) are cultivated in the culture medium obtained from Promocell (with supplements corresponding to 5% FCS) for maximum 5 passages, seeded into black 384-well culture plates with clear bottom (3000 cells/well/30 μl), and incubated for 16-24 hours at 37° C., 5% CO2 and 90% rH.
The following day cells were serum-starved for 2-3 h in order to stop TGF-ß-mediated signalling derived from ligands present in FBS. 1.5 ng/ml BMP-9 was than added in parallel with test compounds for 2 h at 37° C., 5% CO2 in order to identify compounds which block functional activity of ALK1 leading to phosphorylation and nuclear translocation of SMAD1/5/8.
After fixation (15 min 4% Formaldehyd in PBS) and permeabilization (10 min 0.2% Triton X-100 in PBS) an indirect immunocytochemical staining is performed with a specific Phospho-Smad1/5 (Ser463/465) antibody (Cell Signaling #9516) and Alexa488-labelled secondary anti-rabbit-IgG-antibody. DNA staining with Propidium Iodide allowed parallel cell counting. Image acquisition and analysis was performed on an MDS ImageXpress Ultra confocal High Content Reader using the image analysis software MetaXpress. Final read-out were % nuclei with a pSMAD1/5 signal above a defined background.
The final DMSO concentration in the assay was 0.5%. DMSO-treated HUVEC cells served as neutral control (=0%) and cells treated with 10 μM of a reference inhibitor described in a patent served as inhibitor control (=−100%). Raw data were normalised to the neutral and inhibitory references. The assay was performed as dose response (10 compound dilutions, 1 nM-30 μM).

[4] = target: T3, ALK2 (GST-modified kinase domain ACVR1(145-509)) (Homo sapiens, UniProt Q04771); experiment: ALK2 kinase inhibition assay (33P-ATP filter binding, Reaction Biology); assay type: biochemical; conditions: casein substrate, 20 μM ATP (Km ATP), 120 min ambient temperature
T3 construct: N-terminally GST-modified kinase domain ACVR1(145-509); GST (N)
T3 sequence (Q04771 145-509): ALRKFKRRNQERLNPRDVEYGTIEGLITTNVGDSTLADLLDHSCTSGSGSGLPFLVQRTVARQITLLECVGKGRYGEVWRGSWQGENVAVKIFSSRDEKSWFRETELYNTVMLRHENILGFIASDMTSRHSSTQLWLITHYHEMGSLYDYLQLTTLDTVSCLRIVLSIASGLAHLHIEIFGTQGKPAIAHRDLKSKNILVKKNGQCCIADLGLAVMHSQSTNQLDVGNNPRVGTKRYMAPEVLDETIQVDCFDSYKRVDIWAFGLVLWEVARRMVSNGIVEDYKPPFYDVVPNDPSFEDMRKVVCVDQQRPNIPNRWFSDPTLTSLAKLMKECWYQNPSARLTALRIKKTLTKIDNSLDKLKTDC
Method: as §1
A2) ALK2 Kinase Inhibition Assay
as §2, with “performed similar to procedure A1” for “performed”, “domain ACVR1(145-509)” for “domain ACVRL1 (139-503)”, “and 1” for “and 20”

Row | pIC50 [1] | pIC50 [2] | pIC50 [4] | SMILES | pIC50 [3]
1 | 5.44 | 7.41 | 7.03 | O=c1[nH]cc(-c2cccc(CO)c2)cc1-c1nc2cc(N3CCOCC3)ccc2[nH]1 [Compound A1, 5-(3-Hydroxymethyl-phenyl)-3-(5-morpholin-4-yl-1H-benzimidazol-2-yl)-1H-pyridin-2-one] | 5.89
2 |  |  |  | O=c1[nH]cc(-c2ccnc3ccccc23)cc1-c1nc2cc(N3CCOCC3)ccc2[nH]1 [Compound A9, 3-(6-Morpholin-4-yl-1H-benzimidazol-2-yl)-5-quinolin-4-yl-1H-pyridin-2-one] | 5.24
3 |  |  |  | O=c1[nH]cc(-c2cc(CO)ccc2Cl)cc1-c1nc2cc(N3CCOCC3)ccc2[nH]1 [Compound A11, 5-(2-Chloro-5-hydroxymethyl-phenyl)-3-(5-morpholin-4-yl-1H-benzimidazol-2-yl)-1H-pyridin-2-one] | 5.19
4 | 5.39 | 7.55 | 7.24 | O=c1[nH]cc(-c2cccc(CO)c2)cc1-c1nc2cc(N3CCC(O)CC3)ccc2[nH]1 [Compound A12, 5-(3-Hydroxymethyl-phenyl)-3-[5-(4-hydroxy-piperidin-1-yl)-1H-benzimidazol-2-yl]-1H-pyridin-2-one] | 5.14
5 |  |  |  | O=c1[nH]cc(-c2ccnc3ccccc23)cc1-c1nc2cc(N3CCNCC3)ccc2[nH]1 [Compound A14, 3-(6-Piperazin-1-yl-1H-benzimidazol-2-yl)-5-quinolin-4-yl-1H-pyridin-2-one] | 5.24
6 |  |  |  | O=c1[nH]cc(-c2ccnc3ccoc23)cc1-c1nc2cc(N3CCNCC3)ccc2[nH]1 [Compound A18, 5-Furo[3,2-b]pyridin-7-yl-3-(5-piperazin-1-yl-1H-benzimidazol-2-yl)-1H-pyridin-2-one] | 5.70
7 |  |  |  | COCc1cccc(-c2c[nH]c(=O)c(-c3nc4cc(N5CCNCC5)ccc4[nH]3)c2)c1 [Compound A19, 5-(3-Methoxymethyl-phenyl)-3-(5-piperazin-1-yl-1H-benzimidazol-2-yl)-1H-pyridin-2-one] | 4.96
8 | 5.19 | 7.48 | 7.39 | O=c1[nH]cc(-c2ccc(F)c(CO)c2)cc1-c1nc2cc(N3CCCNCC3)ccc2[nH]1 [Compound A24, 3-(5-[1,4]Diazepan-1-yl-1H-benzimidazol-2-yl)-5-(4-fluoro-3-hydroxymethyl-phenyl)-1H-pyridin-2-one] | 
9 | 5.60 | 8.40 | 7.52 | CN1CCN(c2ccc3[nH]c(-c4cc(-c5cccc(CO)c5F)c[nH]c4=O)nc3c2)CC1 [Compound A37, 5-(2-Fluoro-3-hydroxymethyl-phenyl)-3-[5-(4-methyl-piperazin-1-yl)-1H-benzimidazol-2-yl]-1H-pyridin-2-one trifluoroacetate] | 
10 | 6.49 | 8.43 | 7.72 | O=c1[nH]cc(-c2ccnc3[nH]ccc23)cc1-c1nc2cc(N3CCC(O)CC3)ccc2[nH]1 [Compound A38, 3-[5-(4-Hydroxy-piperidin-1-yl)-1H-benzimidazol-2-yl]-5-(1H-pyrrolo[2,3-b]-pyridin-4-yl)-1H-pyridin-2-one] | 
11 |  |  |  | COc1ccc2[nH]c(-c3cc(-c4ccnc5[nH]ccc45)c[nH]c3=O)nc2c1 [Compound A42, 3-(5-Methoxy-1H-benzimidazol-2-yl)-5-(1H-pyrrolo[2,3-b]pyridin-4-yl)-1H-pyridin-2-one] | 5.10
12 |  |  |  | Cc1[nH]c2ncccc2c1-c1c[nH]c(=O)c(-c2nc3cc(N4CCNCC4)ccc3[nH]2)c1 [Compound A45, 5-(2-Methyl-1H-pyrrolo[2,3-b]pyridin-3-yl)-3-(5-piperazin-1-yl-1H-benzimidazol-2-yl)-1H-pyridin-2-one] | 5.30
13 |  |  |  | O=c1[nH]cc(-c2ccnc3[nH]ccc23)cc1-c1nc2cc(N3CC4CCC(C3)N4)ccc2[nH]1 [Compound A46, 3-[6-(3,8-Diaza-bicyclo[3.2.1]oct-3-yl)-1H-benzimidazol-2-yl]-5-(1H-pyrrolo-[2,3-b]pyridin-4-yl)-1H-pyridin-2-one] | 5.36
14 | 6.70 | 9.00 | 7.42 | O=c1[nH]cc(-c2ccnc3[nH]ccc23)cc1-c1nc2cc(N3CCCNCC3)ccc2[nH]1 [Compound A47, 3-(5-[1,4]Diazepan-1-yl-1H-benzimidazol-2-yl)-5-(1H-pyrrolo[2,3-b]pyridin-4-yl)-1H-pyridin-2-one] | 
15 |  |  |  | CN1C2CCC1CN(c1ccc3[nH]c(-c4cc(-c5ccnc6[nH]ccc56)c[nH]c4=O)nc3c1)C2 [Compound A53, 3-[6-(8-Methyl-3,8-diaza-bicyclo[3.2.1]oct-3-yl)-1H-benzimidazol-2-yl]-5-(1H-pyrrolo[2,3-b]pyridin-4-yl)-1H-pyridin-2-one] | 5.55
